Assay [1] deals with L1210. Put plainly: Compound was evaluated for inhibitory activity against L-1210 leukemic cells in vitro; Range 1.8x10E-8 to 2x10E-7 M. Format: functional. As to conditions: Mus musculus, read-out: ID50 (the source's name).
Assay [2] relates to P388. Put plainly: Compound was evaluated for inhibitory activity against P-388 leukemic cells in vitro; Range 1.8x10E-8 to 2x10E-7 M. Type of assay: functional. As to conditions: Mus musculus, read-out: ID50 (the source's name).

Turning to `Cc1c(CNc2ccc(C(=O)NC(CCC(=O)O)C(=O)O)cc2)cnc2nc(N)nc(N)c12` (configuration not stated), the IC50 in assay [1] and in assay [2] was 200 nM throughout.

The values are drawn from ChEMBL document CHEMBL1123525, “Synthesis and biological activities of 5-deaza analogues of aminopterin and folic acid” (1986).
